Measurements as given in BindingDB's records for PubMed 38340508 (Biomedical Research Foundation of the Academy of Athens).
pIC50: −log10 of the molar value.

Experiment: Inhibition of MYC in chicken embryonic fibroblasts assessed as reduction in transformed cell foci with repeated addition of compounds every second day and measured after 1 to 3 weeks by crystal violet staining based analysis

Work on `Cc1cc(N2CCCCC2)nc2ccc(Cc3ccc4nc(N5CCCCC5)cc(C)c4c3)cc12` yielded a pIC50 of 5.52.
